Assay [1] deals with T1, GPR17 (Homo sapiens, UniProt Q13304). The assay is described as follows: Calcium mobilization functional assay (GPR17 Ca2+ assay). The class given is cell-based. More on the design: host or cells: Flp-In T-REx CHO. To be noted: CHO hGPR17 cells, inhibition of 50 nM MDL29,951, Calcium 5 dye, FLIPR; read-out: Ca2+ assay pIC50 (converted). In a few lines: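 Flp-In T-REx CHO cells stably expressing human GPR17, doxycycline-induced (1 μg/mL, 16-20 h), loaded 60 min with Calcium 5 dye. Inhibition by varying test-compound concentrations of the 50 nM MDL29,951 agonist response was read by fluorescence over time at room temperature. pIC50 came from 4-parameter logistic fitting.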
T1 sequence (Q13304 whole entry): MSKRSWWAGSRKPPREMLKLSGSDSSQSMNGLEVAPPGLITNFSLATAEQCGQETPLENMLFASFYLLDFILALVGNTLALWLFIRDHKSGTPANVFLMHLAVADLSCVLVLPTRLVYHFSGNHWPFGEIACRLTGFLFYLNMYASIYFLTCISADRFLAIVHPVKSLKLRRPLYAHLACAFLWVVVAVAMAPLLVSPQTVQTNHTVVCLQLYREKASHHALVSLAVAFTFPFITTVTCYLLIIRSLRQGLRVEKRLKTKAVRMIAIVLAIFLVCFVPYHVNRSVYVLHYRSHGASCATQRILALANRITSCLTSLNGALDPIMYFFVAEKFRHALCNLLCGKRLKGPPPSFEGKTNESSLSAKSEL

Assay [2] deals with T1, GPR17. The assay is described as follows: cAMP accumulation functional assay (HTRF, Schild analysis). To be noted: CHO hGPR17 cells, Schild analysis vs MDL29,951, 5 μM forskolin, read-out: cAMP assay pA2 (converted). It is filed as cell-based. Further details: host or cells: Flp-In T-REx CHO. The protocol:
Flp-In T-REx CHO cells stably expressing human GPR17 receptor (CHO hGPR17) from Evi Kostenis' lab (Bonn University, Germany) were cultured at 37° C. in a humidified atmosphere of 5% CO2. Cells were grown in DMEM with Nutrient Mixture F-12 supplemented with hygromycin B (500 μg/mL) and blasticidin (30 μg/mL). Expression from the Flp-In locus was induced by treatment with doxycycline (1 μg/mL) for 16-20 h prior assays.
GPR17 activation can also recruit Gi-type G-protein signaling, resulting in a decrease of intracellular cyclic adenosine monophosphate (cAMP). Intracellular cAMP changes can be measured using the HTRF cAMP dynamic assay kit from CisBio (Codolet, France). Using homogenous time-resolved fluorescence technology (HTRF), the assay is based on competition between native cAMP produced by cells and cAMP labelled with the dye d2. The tracer binding was determined by an anti-cAMP antibody labeled with cryptate.
CHO hGPR17 were detached with PBS containing EDTA and dispatched in black 384-well plates with 5,000 cells per well. Cells were first incubated for 30 minutes at room temperature in HBSS Hepes (pH 7.4) containing vehicle or varying concentrations of test GPR17 antagonist/inverse agonist compounds. […] After 60 minutes incubation at room temperature, the reaction is terminated and the cells lysed by adding the d2 detection reagent and the cryptate reagent in 10 μL lysis buffer each according to manufacturer's instructions. After 60 minutes incubation, changes in cAMP concentrations are measured according to manufacturer's instructions using an Envision plate reader with laser excitation. All incubations were performed in duplicate. Data was analyzed using GraphPad Prism software using the 4-parameter logistic equation to measure MDL29,951 pEC50s in absence and presence of GPR17 antagonist/inverse agonist test compounds. Dose ratio (DR) were plotted against antagonist concentrations and Schild analysis provided estimated affinity pA2 of GPR17 antagonist/inverse agonist test compounds.
The activities of the Example compounds tested are depicted in the table below. The activity ranges A, B and C refer to pA2 values in the cAMP assay as follows: “A”: pA2<7.5, “B”: pA2 7.5<x≤8.5, “C”: pA2>8.5.
Background: Cyclic AMP is a second messenger, typically raised through Gs and lowered through Gi signalling.

The structures appear in SMILES notation. Some results are limits rather than exact numbers.

Regarding `O=S(=O)(Nc1ccc(Cl)cc1F)c1c[nH]c2cc(Cl)ccc12` [Compound I-141, 6-chloro-N-(4-chloro-2-fluorophenyl)-1H-indole-3-sulfonamide], the IC50 on GPR17 [1] was 3.16 to 31.6 nM. Further, the Kb at GPR17 [2] is less than 3.16 nM.
Turning to `O=S(=O)(Nc1cccc2n[se]nc12)c1c[nH]c2cc(Cl)ccc12` [Compound I-142, N-(2,1,3-benzoselenadiazol-4-yl)-6-chloro-1H-indole-3-sulfonamide], at GPR17 [1], the IC50 is less than 3.16 nM. Moreover, the Kb at GPR17 [2] was less than 3.16 nM.
Take `COc1cc(NS(=O)(=O)c2c[nH]c3cc(Cl)ccc23)c(F)cc1C#N` [Compound I-143, 6-chloro-N-(4-cyano-2-fluoro-5-methoxyphenyl)-1H-indole-3-sulfonamide]: the IC50 on GPR17 [1] was less than 3.16 nM. In addition, on GPR17 [2], the Kb is less than 3.16 nM.
As to `O=S(=O)(Nc1ccc2nsnc2c1)c1c[nH]c2cc(Cl)ccc12` [Compound I-147, N-(2,1,3-benzothiadiazol-5-yl)-6-chloro-1H-indole-3-sulfonamide], on GPR17 [1], the IC50 is 3.16 to 31.6 nM. Further, the Kb on GPR17 [2] is 3.16 to 31.6 nM.
On to `N#Cc1ccc(NS(=O)(=O)c2c[nH]c3c4c(ccc23)CCC4)c(F)c1` [Compound I-150, N-(4-cyano-2-fluorophenyl)-1,6,7,8-tetrahydrocyclopenta[g]indole-3-sulfonamide], for which, at GPR17 [1], the IC50 is 3.16 to 31.6 nM. Besides, at GPR17 [2], the Kb was less than 3.16 nM.
The matching figures for `N#Cc1cc(F)c(NS(=O)(=O)c2c[nH]c3c2ccc2ccccc23)cc1F` [Compound I-151, N-(4-cyano-2,5-difluorophenyl)-1H-benzo[g]indole-3-sulfonamide]: less than 3.16 nM and less than 3.16 nM.
Taken in the same sequence, the figures for `N#Cc1ccc(NS(=O)(=O)c2c[nH]c3c2ccc2ccccc23)c(F)c1` [Compound I-152, N-(4-cyano-2-fluorophenyl)-1H-benzo[g]indole-3-sulfonamide] were less than 3.16 nM and less than 3.16 nM.
Taken in the same sequence, the figures for `N#Cc1cc(F)c(NS(=O)(=O)c2c[nH]c3cc(OCc4ccccc4)ccc23)cc1F` [Compound I-153, 6-(benzyloxy)-N-(4-cyano-2,5-difluorophenyl)-1H-indole-3-sulfonamide] were less than 3.16 nM and 3.16 to 31.6 nM.
For the molecule `N#Cc1ccc(NS(=O)(=O)c2c[nH]c3cc(OCc4ccccc4)ccc23)c(F)c1` [Compound I-154, 6-(benzyloxy)-N-(4-cyano-2-fluorophenyl)-1H-indole-3-sulfonamide], the IC50 on GPR17 [1] was less than 3.16 nM. At GPR17 [2], the Kb is 3.16 to 31.6 nM.
Taken in the same sequence, the figures for `O=S(=O)(Nc1cccc2nsnc12)c1c[nH]c2c1ccc1ccccc12` [Compound I-155, N-(2,1,3-benzothiadiazol-4-yl)-1H-benzo[g]indole-3-sulfonamide] were 3.16 to 31.6 nM and less than 3.16 nM.
Taken in the same sequence, the figures for `N#Cc1ccc(NS(=O)(=O)c2c[nH]c3c2ccc2ccccc23)cc1` [Compound I-159, N-(4-cyanophenyl)-1H-benzo[g]indole-3-sulfonamide] were 3.16 to 31.6 nM and 3.16 to 31.6 nM.
`O=S(=O)(Nc1cc2nsnc2cc1F)c1c[nH]c2c1ccc1ccccc12` [Compound I-160, N-(6-fluoro-2,1,3-benzothiadiazol-5-yl)-1H-benzo[g]indole-3-sulfonamide]: on GPR17 [1], the IC50 is less than 3.16 nM. The Kb on GPR17 [2] was 3.16 to 31.6 nM.
`O=S(=O)(Nc1cc2nsnc2cc1F)c1c[nH]c2cc(Cl)ccc12` [Compound I-162, 6-chloro-N-(6-fluoro-2,1,3-benzothiadiazol-5-yl)-1H-indole-3-sulfonamide]: at GPR17 [1], the IC50 was less than 3.16 nM. The Kb on GPR17 [2] is less than 3.16 nM.
As for `CC(C)c1ccc2c(S(=O)(=O)Nc3ccc(C#N)cc3F)c[nH]c2c1` [Compound I-170, N-(4-cyano-2-fluorophenyl)-6-(propan-2-yl)-1H-indole-3-sulfonamide], the IC50 at GPR17 [1] was less than 3.16 nM. Further, the Kb on GPR17 [2] was less than 3.16 nM.
Take `Cc1ccc2c(S(=O)(=O)Nc3ccc(Br)cc3F)c[nH]c2c1` [Compound I-173, N-(4-bromo-2-fluorophenyl)-6-methyl-1H-indole-3-sulfonamide]: on GPR17 [1], the IC50 is 3.16 to 31.6 nM. On GPR17 [2], the Kb was 3.16 to 31.6 nM.
On to `Cc1ccc2c(S(=O)(=O)Nc3ccc(Cl)cc3F)c[nH]c2c1` [Compound I-174, N-(4-chloro-2-fluorophenyl)-6-methyl-1H-indole-3-sulfonamide], for which the IC50 on GPR17 [1] is 3.16 to 31.6 nM. The Kb on GPR17 [2] is 3.16 to 31.6 nM.
On to `COc1cc(Cl)c(F)cc1NS(=O)(=O)c1c[nH]c2c1ccc1ccccc12` [Compound I-175, N-(4-chloro-5-fluoro-2-methoxyphenyl)-1H-benzo[g]indole-3-sulfonamide], for which the IC50 at GPR17 [1] was more than 31.6 nM. The Kb at GPR17 [2] was 3.16 to 31.6 nM.
For the molecule `N#Cc1ccc(NS(=O)(=O)c2c[nH]c3nc(Br)ccc23)c(F)c1` [Compound I-177, 6-bromo-N-(4-cyano-2-fluorophenyl)-1H-pyrrolo[2,3-b]pyridine-3-sulfonamide], the IC50 on GPR17 [1] is less than 3.16 nM. Also, on GPR17 [2], the Kb was less than 3.16 nM.
On to `N#Cc1ccc(NS(=O)(=O)c2c[nH]c3nc(Cl)ccc23)cc1` [Compound I-178, 6-chloro-N-(4-cyanophenyl)-1H-pyrrolo[2,3-b]pyridine-3-sulfonamide], for which the IC50 at GPR17 [1] is 3.16 to 31.6 nM. Moreover, the Kb on GPR17 [2] was 3.16 to 31.6 nM.
Take `O=S(=O)(Nc1ccc2nsnc2c1)c1c[nH]c2nc(Cl)ccc12` [Compound I-179, N-(2,1,3-benzothiadiazol-5-yl)-6-chloro-1H-pyrrolo[2,3-b]pyridine-3-sulfonamide]: at GPR17 [1], the IC50 was less than 3.16 nM. The Kb at GPR17 [2] is 3.16 to 31.6 nM.
Taken in the same sequence, the figures for `N#Cc1ccc(NS(=O)(=O)c2c[nH]c3cc(Cl)ccc23)cc1Cl` [Compound I-181, 6-chloro-N-(3-chloro-4-cyanophenyl)-1H-indole-3-sulfonamide] were 3.16 to 31.6 nM and 3.16 to 31.6 nM.
For the molecule `N#Cc1cc(F)c(NS(=O)(=O)c2c[nH]c3cc(Cl)ccc23)c(F)c1` [Compound I-182, 6-chloro-N-(4-cyano-2,6-difluorophenyl)-1H-indole-3-sulfonamide], on GPR17 [1], the IC50 is less than 3.16 nM. The Kb at GPR17 [2] was 3.16 to 31.6 nM.
For the molecule `O=S(=O)(Nc1ccc2nsnc2c1)c1c[nH]c2cc(Br)ccc12` [Compound I-183, N-(2,1,3-benzothiadiazol-5-yl)-6-bromo-1H-indole-3-sulfonamide], the IC50 on GPR17 [1] is less than 3.16 nM. Also, the Kb on GPR17 [2] was less than 3.16 nM.
`N#Cc1cc(F)c(NS(=O)(=O)c2c[nH]c3cc(C(F)(F)F)ccc23)cc1F` [Compound I-184, N-(4-cyano-2,5-difluorophenyl)-6-(trifluoromethyl)-1H-indole-3-sulfonamide]: the IC50 on GPR17 [1] was less than 3.16 nM. Besides, on GPR17 [2], the Kb was less than 3.16 nM.
Take `N#Cc1cc(F)c(NS(=O)(=O)c2c[nH]c3cc(Cl)ccc23)cc1F` [Compound I-185, 6-chloro-N-(4-cyano-2,5-difluorophenyl)-1H-indole-3-sulfonamide]: the IC50 on GPR17 [1] is less than 3.16 nM. Moreover, on GPR17 [2], the Kb was less than 3.16 nM.
On to `O=S(=O)(Nc1cccc2nsnc12)c1c[nH]c2cc(C(F)(F)F)ccc12` [Compound I-186, N-(2,1,3-benzothiadiazol-4-yl)-6-(trifluoromethyl)-1H-indole-3-sulfonamide], for which the IC50 on GPR17 [1] was 3.16 to 31.6 nM. In addition, the Kb on GPR17 [2] is 3.16 to 31.6 nM.
Take `N#Cc1cc(F)c(NS(=O)(=O)c2c[nH]c3cc(Br)ccc23)cc1F` [Compound I-188, 6-bromo-N-(4-cyano-2,5-difluorophenyl)-1H-indole-3-sulfonamide]: the IC50 on GPR17 [1] is less than 3.16 nM. Further, the Kb at GPR17 [2] was less than 3.16 nM.
Regarding `N#Cc1ccc(NS(=O)(=O)c2c[nH]c3cc(C(F)(F)F)ccc23)c(F)c1` [Compound I-189, N-(4-cyano-2-fluorophenyl)-6-(trifluoromethyl)-1H-indole-3-sulfonamide], the IC50 on GPR17 [1] was less than 3.16 nM. Moreover, the Kb on GPR17 [2] is less than 3.16 nM.
For the molecule `O=S(=O)(Nc1ncc(Cl)cc1F)c1c[nH]c2c1ccc1ccccc12` [Compound I-191, N-(5-chloro-3-fluoropyridin-2-yl)-1H-benzo[g]indole-3-sulfonamide], the IC50 at GPR17 [1] is 3.16 to 31.6 nM. Also, at GPR17 [2], the Kb is less than 3.16 nM.
Take `O=S(=O)(Nc1cc2nsnc2cc1F)c1c[nH]c2cc(Br)ccc12` [Compound I-193, 6-bromo-N-(6-fluoro-2,1,3-benzothiadiazol-5-yl)-1H-indole-3-sulfonamide]: on GPR17 [1], the IC50 is less than 3.16 nM. Besides, the Kb on GPR17 [2] was less than 3.16 nM.

(Values after patent US12071404B2, “Aza (indole)-, benzothiophene-, and benzofuran-3-sulfonamides” (UCB Pharma GmbH, priority 2016, dated 2024).)
